Source: article PMC12133982, “Predominant T-cell epitopes of SARS-CoV-2 restricted by multiple prevalent HLA-B and HLA-C allotypes in Northeast Asia” (Frontiers in Immunology, 2025)
Where two headings read alike, the source gives them in different places. Peptide text beside a SMILES is read from it.

How the values were obtained:
HLA-C0801 = HLA-C0801 (Homo sapiens, UniProt P10321, A176T/A330V/A97T/C350S/D114A/D138N/D33Y/E201K/E299G/L171W/L218V/M285V/M309V/M331V/P208H/Q277E/Q291P/R59Q/S123Y/S140F/S297R/S48A/T329A/T363A/V319A/V328M); assay: Competitive peptide binding assay, CIR-C0801; conditions: HMy2.CIR-C0801 cells, reference Cy5-[…], class from inhibition at 5 and 15 μM, flow cytometry MFI; read-out: Binding affinity with HLA-C0801
Procedure: (§1) Then, competitive peptide binding assays were performed.

HLA-C0302 = HLA-C0302 (Homo sapiens, UniProt P10321, A176E/A330V/A97T/C25G/C350S/D114A/D33Y/E197K/L127V/L171W/L218V/M285V/M309V/M331V/P208H/Q277E/Q291P/R243W/R45H/S123Y/S297R/S48A/T118I/T187L/T329A/T363A/V319A); assay: Competitive peptide binding assay, CIR-C0302; conditions: HMy2.CIR-C0302 cells, reference Cy5-[…], class from inhibition at 5 and 15 μM, flow cytometry MFI; read-out: Binding affinity with HLA-C0302
Procedure: as §1

HLA-C0602 = HLA-C0602 (Homo sapiens, UniProt P10321, A176E/A330V/C350S/L171W/L180W/L218V/M285V/M309V/M331V/N104K/P208H/Q277E/Q291P/R121W/S101N/S123Y/S297R/T329A/T363A/V319A/V328M); assay: Competitive peptide binding assay, CIR-C0602
HLA-C0702 = HLA-C0702 (Homo sapiens, UniProt P10321); assay: Competitive peptide binding assay, CIR-C0702
HLA-C0102 = HLA-C0102 (Homo sapiens, UniProt P10321, A176E/A330V/A35S/A97T/C350S/D114A/D33F/L171W/L180R/L218V/M285V/M309V/M331V/P208H/Q277E/Q291P/R121W/R243W/R30K/S123C/S140Y/S297R/T329A/T363A/V272M/V319A); assay: Competitive peptide binding assay, CIR-C0102; conditions: for inhibition at 5 µM / inhibition at 15 µM: read-out: Inhibition % of Cy5-reference peptide binding
Procedure: as §1

HLA-C0401 = HLA-C0401 (Homo sapiens, UniProt P10321, A176E/A330V/A35S/A73E/C25G/C350S/D138N/D33S/E299K/L171W/L180R/L218V/M285V/M309V/M331V/N104K/P208H/Q277E/Q291P/R243W/R38W/S101N/S123F/S140F/S297R/S48A/T329A/T363A/V319A/V327M); assay: Competitive peptide binding assay, CIR-C0401; conditions: HMy2.CIR-C0401 cells, reference Cy5-[…], class from inhibition at 5 and 15 μM, flow cytometry MFI; read-out: Binding affinity with HLA-C0401
Procedure: as §1

HLA-B4601 = HLA-B4601 (Homo sapiens, UniProt P01889, A329T/A93R/C349S/D201E/E100V/E187L/E204Q/E69M/E70A/I90K/K202T/N87E/R155S/R180W/S121R/S35A/S48A/V306I/V36M/Y140S); assay: Competitive peptide binding assay, CIR-B4601
Procedure: as §1

HLA-B5801 = HLA-B5801 (Homo sapiens, UniProt P01889, A329T/C349S/D201E/D98Y/E176V/E187L/E204Q/E69T/G107R/I218V/I90N/K202T/L105A/L119I/N104I/N87E/Q89R/Q94S/R106L/R155S/R180L/R86G/S101N/S121R/S35A/S48A/T118I/V127L/V306I/V36M/Y140S/Y91M); assay: Competitive peptide binding assay, CIR-B5801; conditions: HMy2.CIR-B5801 cells, reference Cy5-[…], class from inhibition at 5 and 15 μM, flow cytometry MFI; read-out: Binding affinity with HLA-B5801
Procedure: as §1

HLA-B1502 = HLA-B1502 (Homo sapiens, UniProt P01889, A329T/A93T/A95T/C349S/D201E/D98Y/E187L/E204Q/E69M/E70A/H137Y/K202T/L119I/Q94N/R155S/R180L/S121R/S35A/S48A/T118I/V306I/V36M/Y140S/Y91S); assay: Competitive peptide binding assay, CIR-B1502; conditions: HMy2.CIR-B1502 cells, reference Cy5-[…], class from inhibition at 5 and 15 μM, flow cytometry MFI; read-out: Binding affinity with HLA-B1502
Procedure: as §1

HLA-B1301 = HLA-B1301 (Homo sapiens, UniProt P01889, A65T/A93T/A95T/D138N/D201E/D98Y/E176V/E204Q/E69M/E70A/G107R/K202T/L105A/L119I/N104T/N87E/Q94N/R106L/R155S/R169L/R180L/S101N/S121R/S35A/S48T/T118I/V127L/V36M/Y140L/Y91S); assay: Competitive peptide binding assay, CIR-B1301; conditions: HMy2.CIR-B1301 cells, reference Cy5-[…], class from inhibition at 5 and 15 μM, flow cytometry MFI; read-out: Binding affinity with HLA-B1301
Procedure: as §1

HLA-B1302 = HLA-B1302 (Homo sapiens, UniProt P01889, A65T/A93T/A95T/D138N/D201E/D98Y/E176V/E204Q/E69M/E70A/G107R/K202T/L105A/L119W/N104T/N87E/Q94N/R106L/R155S/R169L/R180L/S101N/S121T/S35A/S48T/V127L/V36M/Y140L/Y91S); assay: Competitive peptide binding assay, CIR-B1302; conditions: HMy2.CIR-B1302 cells, reference Cy5-MMWYWGPSL, class from inhibition at 5 and 15 μM, flow cytometry MFI; read-out: Binding affinity with HLA-B1302
Procedure: as §1

HLA-B1501 = HLA-B1501 (Homo sapiens, UniProt P01889, A329T/A93T/A95T/C349S/D201E/D98Y/E187L/E204Q/E69M/E70A/K202T/N87E/Q94N/R155S/R180W/S121R/S35A/S48A/V306I/V36M/Y140S/Y91S); assay: Competitive peptide binding assay, CIR-B1501; conditions: HMy2.CIR-B1501 cells, reference Cy5-[…], class from inhibition at 5 and 15 μM, flow cytometry MFI; read-out: Binding affinity with HLA-B1501
Procedure: as §1

HLA-B3501 = HLA-B3501 (Homo sapiens, UniProt P01889, A329T/A93T/A95T/C349S/D201E/D98Y/E176V/E187L/E204Q/E69T/I218V/K202T/L119I/Q94N/R155S/R180L/S121R/S35A/S48A/T118I/V127L/V306I/V36M/Y140S/Y91F); assay: Competitive peptide binding assay, CIR-B3501; conditions: HMy2.CIR-B3501 cells, reference Cy5-[…], class from inhibition at 5 and 15 μM, flow cytometry MFI; read-out: Binding affinity with HLA-B3501
Procedure: as §1

[1] = HMy2.CIR-C0102 cells, reference Cy5-[…], class from inhibition at 5 and 15 μM, flow cytometry MFI, read-out: Binding affinity with HLA-C0102

SMILES | IC50 (HLA-C0801) [µM] | IC50 (HLA-C0302) [µM] | IC50 (HLA-C0602) [µM] | IC50 (HLA-C0702) [µM] | IC50 (HLA-C0102; [1]) [µM] | inhibition at 5 µM (HLA-C0102) [%] | inhibition at 15 µM (HLA-C0102) [%] | also measured
CC[C@H](C)[C@H](NC(=O)[C@H](C)NC(=O)CNC(=O)[C@@H](NC(=O)[C@H](Cc1ccc(O)cc1)NC(=O)[C@@H](NC(=O)[C@@H](N)CC(C)C)[C@@H](C)O)[C@@H](C)O)C(=O)N[C@@H](CCCCN)C(=O)N[C@@H](CC(C)C)C(=O)O [Epitope M15] (H-LTYTGAIKL-OH; N-terminus and C-terminus assumed) | < 5 | > 15 | < 5 | > 15 |  |  |  | 
CC[C@H](C)[C@H](NC(=O)[C@H](C)NC(=O)[C@H](CC(C)C)NC(=O)[C@@H](NC(=O)[C@@H](N)C(C)C)[C@@H](C)O)C(=O)N[C@@H](CC(C)C)C(=O)N[C@H](C(=O)N[C@@H](C)C(=O)N[C@@H](CC(C)C)C(=O)O)[C@@H](C)O [Epitope M3, VTLAILTAL] (H-VTLAILTAL-OH; N-terminus and C-terminus assumed) |  |  | > 15 | 5 to 15 | < 5 | 69.2 | 87.4 | IC50 (HLA-C0401): < 5 µM
CC(C)C[C@H](NC(=O)[C@H](C)NC(=O)[C@@H](NC(=O)[C@H](Cc1ccccc1)NC(=O)[C@H](Cc1c[nH]c2ccccc12)NC(=O)[C@H](CO)NC(=O)[C@H](C)NC(=O)[C@@H](NC(=O)[C@@H](N)CC(N)=O)[C@@H](C)O)[C@@H](C)O)C(=O)O [Epitope M56, NTASWFTAL] (H-NTASWFTAL-OH; N-terminus and C-terminus assumed) | 5 to 15 |  | > 15 |  | > 15 | 17.3 | 46.5 | 
CC[C@H](C)[C@H](NC(=O)[C@@H]1CCCN1C(=O)[C@@H](NC(=O)[C@H](Cc1c[nH]cn1)NC(=O)[C@H](CCCCN)NC(=O)[C@H](CO)NC(=O)[C@@H](N)Cc1ccc(O)cc1)[C@@H](C)O)C(=O)N[C@@H](CC(N)=O)C(=O)N[C@@H](CC(C)C)C(=O)O [Epitope M127] (H-YSKHTPINL-OH; N-terminus and C-terminus assumed) |  |  | > 15 | > 15 |  |  |  | 
CC[C@H](C)[C@H](NC(=O)[C@H](CCCNC(=N)N)NC(=O)[C@H](CO)NC(=O)[C@H](CCSC)NC(=O)CNC(=O)[C@@H](N)Cc1ccccc1)C(=O)NCC(=O)N[C@@H](CCSC)C(=O)N[C@@H](CCC(=O)O)C(=O)N[C@H](C(=O)O)C(C)C [Epitope M19] (H-FGMSRIGMEV-OH; N-terminus and C-terminus assumed) | > 15 |  | < 5 | > 15 | > 15 |  |  | 
CC(C)[C@H](NC(=O)CNC(=O)[C@H](CCCNC(=N)N)NC(=O)[C@@H](NC(=O)[C@H](Cc1ccccc1)NC(=O)[C@H](CO)NC(=O)[C@@H](N)CC(N)=O)[C@@H](C)O)C(=O)N[C@@H](Cc1ccc(O)cc1)C(=O)N[C@@H](Cc1ccc(O)cc1)C(=O)O [Epitope M129] (H-NSFTRGVYY-OH; N-terminus and C-terminus assumed) |  | > 15 |  |  | > 15 | 11.3 | 34.3 | 
CC[C@H](C)[C@H](NC(=O)[C@H](Cc1ccc(O)cc1)NC(=O)[C@H](CC(C)C)NC(=O)[C@H](Cc1ccccc1)NC(=O)[C@H](CCCNC(=N)N)NC(=O)[C@H](CC(N)=O)NC(=O)[C@H](CCCNC(=N)N)NC(=O)[C@H](CC(N)=O)NC(=O)[C@H](C)NC(=O)[C@@H](N)Cc1ccc(O)cc1)C(=O)O [Epitope M73] (H-YANRNRFLYI-OH; N-terminus and C-terminus assumed) |  | 5 to 15 | < 5 |  | > 15 | 23.5 | 47.8 | 
CSCC[C@H](NC(=O)[C@H](CO)NC(=O)[C@H](CCCNC(=N)N)NC(=O)[C@@H](NC(=O)[C@H](CCCNC(=N)N)NC(=O)[C@H](C)NC(=O)[C@H](Cc1ccccc1)NC(=O)[C@H](CC(C)C)NC(=O)[C@@H](N)CCCNC(=N)N)[C@@H](C)O)C(=O)O [Epitope M41] (H-RLFARTRSM-OH; N-terminus and C-terminus assumed) | 5 to 15 |  |  | > 15 |  | 9.56 | 35.7 | IC50 (HLA-C0102): > 15 µM
C[C@H](NC(=O)[C@H](CO)NC(=O)[C@H](CO)NC(=O)[C@@H](N)Cc1ccc(O)cc1)C(=O)N[C@@H](CC(N)=O)C(=O)N[C@@H](CC(N)=O)C(=O)N[C@@H](CS)C(=O)N[C@H](C(=O)N[C@@H](Cc1ccccc1)C(=O)O)[C@@H](C)O [Epitope Y247] (H-YSSANNCTF-OH; N-terminus and C-terminus assumed) |  |  |  |  |  |  |  | IC50 (HLA-B4601; HMy2.CIR-B4601 cells, reference Cy5-[…], class from inhibition at 5 and 15 μM, flow cytometry MFI, read-out: Binding affinity with HLA-B4601): 5 to 15 µM; inhibition at 5 µM (HLA-B4601; read-out: Inhibition % of Cy5-reference peptide binding, CIR-B4601, 5μM peptide): 44.6%; inhibition at 15 µM (HLA-B4601; read-out: Inhibition % of Cy5-reference peptide binding, CIR-B4601, 15μM peptide): 86.4%; IC50 (HLA-B5801): < 5 µM; IC50 (HLA-B1502): > 15 µM; IC50 (HLA-B1301): > 15 µM; IC50 (HLA-B1302): 5 to 15 µM; IC50 (HLA-B1501): > 15 µM; IC50 (HLA-B3501): > 15 µM
